Results published in patent US20040224981A1, “Antibacterial methods and compositions” (priority 2003, published 2004).
≈ marks a conversion by molar mass, not a printed value. Counter-ions that a name gives are not always drawn. Like-named read-outs stand apart in the source and are kept apart here.

Experiments:
[1] = system: S. aureus, coagulase-negative staphylococci and S. pyogenes strains; experiment: Serial passage, whole panel of 19 isolates; format: cell-based; conditions: after 20 passages; observed with five of the 19 organisms tested
Experimental: MRSi compound 5 (acetate salt), mupirocin and MRSi compound 5/mupirocin 1:1 combination were tested for development of resistance following serial passage using 19 isolates, including S. aureus, coagulase-negative staphylococci and S. pyogenes strains.

[2] = system: S. aureus RN4220 (pYH4-MRS); experiment: Mode of action: MIC with MRS over-production; format: cell-based
Experimental: The strain expresses high levels of MRS upon the addition of 0.01 μg/mL of anyhdrotetracycline.

[3] = system: S. aureus; experiment: MIC against S. aureus strains and clinical isolates (broth microdilution); format: cell-based, Staphylococcus aureus
Experimental: were tested against a collection of clinical isolates of S. aureus including strains that were multi-resistant to mupirocin and to other agents such as gentamicin and oxacillin.
The acetate and mupirocin salts of the MRS inhibitor compound 5 were tested against a collection of both low and high-level mupirocin resistant clinical isolates of S. aureus (Table 6).
The bacterial strains were tested for susceptibility to mupirocin and MRSi compound 2 using the broth microdilution method in accordance with NCCLS guideline to determine their MICs.
Briefly, the MIC and checkerboard titration assays were performed with strains in microtiter trays with cation-supplemented Mueller-Hinton broth (Difco). Inocula were prepared by suspending growth from blood agar plates in sterile saline to a density equivalent to that of a 0.5 McFarland standard and were diluted […] to produce a final inoculum of 5×10^5 CFU/ml. The trays were incubated aerobically overnight. Standard quality control strains were included with each run. Fractional inhibitory concentrations (FICs) were calculated as the MIC of drug A or B in combination/MIC of drug A or B alone, and the FIC index was obtained by adding the two FICs. FIC indices were interpreted as synergistic if the values were ≦0.5, additive or indifferent if the values were >0.5 to 4, and antagonistic if the values were >4.0.

[4] = system: E. faecalis; experiment: MIC against E. faecalis; format: cell-based; conditions: Enterococcus faecalis, Table 8
Experimental: The MRS inhibitor 4 alone and in combination with mupirocin (mupirocin salt and 1:1 combination) were tested against a collection of Gram-positive pathogens.
(§1) MRSi compound 5 alone and in combination with mupirocin was tested recent clinical isolates of E. faecalis (n=28) and E. faecium (n=23). Both the acetate salt and mupirocinate salts of MRSi compound 5 maintained potent activity against vancomycin-susceptible and—resistant enterococci (Tables 8, 9, and 10).

[5] = system: E. faecium; experiment: MIC against E. faecium; format: cell-based; conditions: Enterococcus faecium, ATCC33667
Experimental: as §1

[6] = system: S. aureus ATCC 29213 and 31-1334; experiment: Selection of spontaneous resistant mutants (mutation frequency); format: cell-based, Staphylococcus aureus
Experimental: Approximately, 10^9 bacteria were plated onto Mueller-Hinton agar supplemented with 10% horse blood and containing various concentrations of the test compounds alone and in combination. After 24 and 48 hours of incubation at 35° C., the bacterial colonies were counted and the frequencies of mutation were determined relative to the total viable count of organisms that were plated. Resistant clones were re-plated once on plates containing the same concentration of agent that was used for the selection.

[7] = S. aureus RN4220 (pYH4-MRS), +aTC (MRS over-expression)
[8] = ATCC 51299 / VRE, E. faecalis ATCC 51299 (VRE)

Q: Which results are given for `C=C(F)c1sc(CNCCCNc2cc(=O)c3ccccc3[nH]2)c(C)c1Br` [MRSi Cmpd 5, N-(4-bromo-5-(1-fluorovinyl)-3-methylthiophen-2-ylmethyl)-N′-(1H-quinolin-4-one)propane-1,3-diamine]?
A: MICs of the most resistant isolates that could be selected [1]: 16 µg/mL; increase in MIC on over-expression of MRS ([2]; +aTC vs −aTC, 0.01 μg/mL anhydrotetracycline): 8 fold; MIC [2, 7]: 1 mg/L (≈ 2.22 µM); MIC ([2]; S. aureus RN4220 (pYH4-MRS), −aTC (no anhydrotetracycline)): 0.12 mg/L (≈ 0.266 µM)

Q: `Brc1cc(Br)c2c(c1)C(NCCCNc1nc3ncccc3[nH]1)CCN2` (stereo not shown) [MRSi cmpd 2, N-(6,8-Dibromo-1,2,3,4-tetrahydroquinolin-4-yl)-N′-(1H-imidazo[4,5-b]pyridine-2-yl)-propane-1,3-diamine dihydrochloride] was tested. Which MIC ([3]; Staphylococcus aureus, ATCC43300, S. aureus ATCC 43300 (ORSA), read-out: MIC) did it give?
A: 0.25 mg/L

Q: What about the MIC ([3]; Staphylococcus aureus, NRS 1 / VISA, S. aureus NRS1 (VISA)) of the same molecule?
A: 0.25 mg/L

Q: And the MIC ([3]; Staphylococcus aureus, NRS107, S. aureus NRS107 (HL Mup rest.), read-out: MIC)?
A: 0.06 mg/L

Q: What about the MIC ([3]; Staphylococcus aureus, S. aureus 10-420 (LL Mup. Rest.), read-out: MIC) of the same molecule?
A: 0.25 mg/L

Q: What about the MIC ([3]; Staphylococcus aureus, S. aureus 14-354 (LL Mup. Rest.), read-out: MIC) of the same molecule?
A: 0.25 mg/L

Q: And the MIC ([3]; Staphylococcus aureus, S. aureus 25-670 (HL Mup. Rest.), read-out: MIC)?
A: 0.25 mg/L

Q: What about the MIC ([3]; Staphylococcus aureus, S. aureus 31-1334 (LL Mup Rest.), read-out: MIC) of the same molecule?
A: 0.25 mg/L

Q: And the MIC ([3]; Staphylococcus aureus, S. aureus 36-1298 (LL Mup. Rest.), read-out: MIC)?
A: 0.06 mg/L

Q: What about the MIC ([3]; Staphylococcus aureus, S. aureus 87-2797 (HL Mup. Rest.), read-out: MIC) of the same molecule?
A: 0.25 mg/L

Q: What about the MIC ([3]; Staphylococcus aureus, S. aureus 87-2797 (Mup. Susc.), read-out: MIC) of the same molecule?
A: 0.25 mg/L

Q: What about the MIC ([3]; Staphylococcus aureus, S. aureus 101-100 (Mup. Susc.), read-out: MIC) of the same molecule?
A: 0.12 mg/L

Q: What about the MIC ([3]; Staphylococcus aureus, S. aureus LZ1 (HL Mup rest.), read-out: MIC) of the same molecule?
A: 0.12 mg/L

Q: What about the MIC ([3]; Staphylococcus aureus, S. aureus LZ6 (HL Mup rest.), read-out: MIC) of the same molecule?
A: 0.25 mg/L

Q: What about the MIC ([3]; Staphylococcus aureus, S. aureus LZ8 (LL Mup. Rest.), read-out: MIC) of the same molecule?
A: 0.25 mg/L

Q: What about the MIC ([3]; Staphylococcus aureus, S. aureus LZ9, read-out: MIC) of the same molecule?
A: 0.25 mg/L

Q: What about the MIC ([3]; Staphylococcus aureus, S. aureus LZ10, read-out: MIC) of the same molecule?
A: 0.25 mg/L

Q: What about the MIC ([3]; Staphylococcus aureus, S. aureus Miles Hall, read-out: MIC) of the same molecule?
A: 0.12 mg/L

Q: And the MIC ([3]; Staphylococcus aureus, S. aureus Oxford, read-out: MIC)?
A: 0.12 mg/L

Q: And the MIC90 ([3]; Staphylococcus aureus, all S. aureus strains of Table 1, read-out: MIC 90)?
A: 0.25 mg/L

Q: What about the MIC ([3]; Table 12, S. aureus 25-670, high level mupirocin-resistant, agent alone) of the same molecule?
A: 0.5 8 g/mL

Q: And the “MIC Range” value ([3]; all S. aureus strains of Table 1 (mupirocin-susceptible and -resistant))?
A: 0.06 to 0.25 mg/L

Q: And the MIC [4, 8]?
A: 0.03 mg/L

Q: And the MIC ([4]; E. faecalis 1)?
A: 0.015 mg/L

Q: What about the MIC ([4]; E. faecalis 7) of the same molecule?
A: 0.06 mg/L

Q: What about the MIC [5] of the same molecule?
A: ≤ 0.004 mg/L

Q: What about the “Mutation Frequency (48 hours)” value ([6]; S. aureus 31-1334 (low level mupirocin-resistant), selecting concentration 2 x MIC) of the same molecule?
A: 3.3 × 10^−7

Q: What about the “Mutation Frequency (48 hours)” value ([6]; S. aureus 31-1334 (low level mupirocin-resistant), selecting concentration 4 x MIC) of the same molecule?
A: 6.8 × 10^−8

Q: What about the “Mutation Frequency (48 hours)” value ([6]; S. aureus 31-1334 (low level mupirocin-resistant), selecting concentration 8 x MIC) of the same molecule?
A: 1.9 × 10^−8

Q: And the “Mutation Frequency (48 hours)” value ([6]; S. aureus ATCC 29213 (mupirocin susceptible), selecting concentration 2 x MIC)?
A: 1.01 × 10^−7

Q: What about the “Mutation Frequency (48 hours)” value ([6]; S. aureus ATCC 29213 (mupirocin susceptible), selecting concentration 4 x MIC) of the same molecule?
A: 3.14 × 10^−8

Q: What about the “Mutation Frequency (48 hours)” value ([6]; S. aureus ATCC 29213 (mupirocin susceptible), selecting concentration 8 x MIC) of the same molecule?
A: 2.07 × 10^−8

Q: What does the source list for `CO[C@@H]1[C@@H](OC(N)=O)[C@@H](O)[C@H](Oc2ccc3c(O)c(NC(=O)c4ccc(O)c(CC=C(C)C)c4)c(=O)oc3c2C)OC1(C)C` [Novobiocin]?
A: MIC [2, 7]: 0.25 mg/L (≈ 0.408 µM); MIC ([2]; Staphylococcus aureus): 0.25 mg/L (≈ 0.408 µM)

Q: Which results are given for `CN[C@H](CC(C)C)C(=O)N[C@H]1C(=O)N[C@@H](CC(N)=O)C(=O)N[C@H]2C(=O)N[C@H]3C(=O)N[C@H](C(=O)N[C@H](C(=O)O)c4cc(O)cc(O)c4-c4cc3ccc4O)[C@H](O)c3ccc(c(Cl)c3)Oc3cc2cc(c3O[C@@H]2O[C@H](CO)[C@@H](O)[C@H](O)[C@H]2O[C@H]2C[C@](C)(N)[C@H](O)[C@H](C)O2)Oc2ccc(cc2Cl)[C@H]1O` [Vancomycin, reference compound]?
A: MIC [2, 7]: 0.5 mg/L (≈ 0.345 µM); MIC ([2]; Staphylococcus aureus): 0.5 mg/L (≈ 0.345 µM); MIC [4, 8]: 4 mg/L; MIC ([4]; E. faecalis 1): 0.12 mg/L; MIC ([4]; E. faecalis 7): 0.5 mg/L; MIC [5]: 0.5 mg/L
